Data taken from ChEMBL document CHEMBL1201862, “PubChem BioAssay data set” (2004).
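Compound exposure: 48 hours, 5 concentrations, 96-well plates. GI50 = concentration required for 50% inhibition of growth.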 Active and inactive are the calls of the source. No stated cut-off is given here; in the data, active = GI50 up to about 1.1 µM and inactive = higher.

Assays:
Test in all cases: NCI-60 cell line screen, 48 h
COLO 205 = system: COLO 205
M14 = system: M14
RXF 393 = system: RXF 393
OVCAR-3 = system: OVCAR-3
LOX IMVI = system: LOX IMVI
SK-MEL-28 = system: SK-MEL-28
UO-31 = system: UO-31
SF-268 = system: SF-268
SW-620 = system: SW-620
NCI-H226 = system: NCI-H226
HCT-116 = system: HCT-116
RPMI-8226 = system: RPMI-8226
TK-10 = system: TK-10
SN12C = system: SN12C
U-251 = system: U-251
SR = system: SR
HT-29 = system: HT-29
K562 = system: K562

Measured: GI50

CCN1CCC(O)(c2ccccc2)C(C(=O)c2ccccc2)C1 (stereo not drawn)
inactive: COLO 205 22.4 µM | M14 17.3 µM | RXF 393 15.5 µM | OVCAR-3 16.3 µM | LOX IMVI 17.4 µM | SK-MEL-28 17.9 µM | UO-31 > 46.2 µM | SF-268 > 31.6 µM | SW-620 17.6 µM | NCI-H226 > 54.1 µM | HCT-116 17.1 µM | RPMI-8226 6.35 µM | TK-10 23.2 µM | SN12C 20.1 µM | U-251 > 100 µM | SR 20.8 µM | HT-29 20.4 µM | K562 23.7 µM

S=c1sc2sc(=S)sc2s1
inactive: COLO 205 84.9 µM | M14 21.1 µM | RXF 393 35.6 µM | LOX IMVI 33.5 µM | UO-31 30 µM | SF-268 43.1 µM | SW-620 > 100 µM | HCT-116 30.1 µM | RPMI-8226 23.1 µM | TK-10 > 100 µM | SN12C 96.8 µM | U-251 21 µM | SR 29.1 µM | HT-29 29.6 µM | K562 22.3 µM

NCC1(N2CCOCC2)C2CCCC21CNc1ccccc1 (stereo not drawn)
inactive: COLO 205 > 100 µM | M14 > 100 µM | RXF 393 56.4 µM | OVCAR-3 > 100 µM | LOX IMVI > 100 µM | SK-MEL-28 > 100 µM | UO-31 > 100 µM | SF-268 > 100 µM | SW-620 > 100 µM | HCT-116 > 100 µM | TK-10 > 100 µM | SN12C > 100 µM | U-251 > 100 µM | SR > 100 µM | HT-29 > 100 µM | K562 90.6 µM

C=C(C#N)C1OCC2OC(C)(C)OC21 (stereo not drawn)
inactive: COLO 205 15.4 µM | M14 15.7 µM | RXF 393 16.7 µM | OVCAR-3 21.7 µM | LOX IMVI 15 µM | SK-MEL-28 21.1 µM | UO-31 40.5 µM | SF-268 23.8 µM | SW-620 19 µM | HCT-116 18.7 µM | TK-10 34 µM | SN12C 18.4 µM | U-251 32.7 µM | HT-29 34.9 µM | K562 28.1 µM

C=C1CN2CCc3c([nH]c4ccccc34)C2CC1CC(=O)N(C)C (stereo not drawn)
inactive: COLO 205 > 309 µM | RXF 393 > 309 µM | OVCAR-3 > 309 µM | LOX IMVI > 309 µM | SK-MEL-28 > 309 µM | SF-268 > 309 µM | SW-620 > 309 µM | NCI-H226 > 309 µM | HCT-116 > 309 µM | RPMI-8226 > 309 µM | TK-10 > 309 µM | SN12C > 309 µM | U-251 > 309 µM | SR > 309 µM | HT-29 > 309 µM | K562 > 309 µM

CN(C)/C(=N/C(=O)Nc1ccccc1)SCc1ccccc1
inactive: COLO 205 > 100 µM | M14 > 100 µM | RXF 393 58.9 µM | OVCAR-3 > 100 µM | LOX IMVI > 100 µM | SK-MEL-28 > 100 µM | UO-31 > 100 µM | SF-268 > 100 µM | SW-620 > 100 µM | NCI-H226 > 100 µM | RPMI-8226 > 100 µM | TK-10 > 100 µM | SN12C > 100 µM | U-251 > 100 µM | HT-29 > 100 µM | K562 76.9 µM

O=C(O)CC12C3C4C5C3C1C5C42 (stereo not drawn)
inactive: COLO 205 > 100 µM | M14 > 100 µM | OVCAR-3 > 100 µM | LOX IMVI > 100 µM | SK-MEL-28 > 100 µM | UO-31 68.9 µM | SF-268 > 100 µM | SW-620 > 100 µM | HCT-116 > 100 µM | RPMI-8226 > 100 µM | TK-10 > 100 µM | SN12C > 100 µM | U-251 > 100 µM | HT-29 > 100 µM | K562 > 100 µM

CC(=O)OC1COC(n2ccc3cc(Br)c([N+](=O)[O-])cc32)C(OC(C)=O)C1OC(C)=O (stereo not drawn)
inactive: COLO 205 23.7 µM | M14 35.8 µM | RXF 393 24.7 µM | OVCAR-3 23.8 µM | LOX IMVI 20.1 µM | SK-MEL-28 27.4 µM | UO-31 12.6 µM | SF-268 33.4 µM | SW-620 39.5 µM | NCI-H226 14.5 µM | RPMI-8226 22.5 µM | TK-10 27 µM | SN12C 30.8 µM | U-251 19.5 µM | SR 30.4 µM | HT-29 28.7 µM | K562 29.6 µM

CC1(Cl)C(=O)NC(=O)N(C2CC(N=[N+]=[N-])C(CO)O2)C1N=[N+]=[N-] (stereo not drawn)
inactive: COLO 205 > 100 µM | M14 > 100 µM | RXF 393 > 100 µM | OVCAR-3 > 100 µM | LOX IMVI > 100 µM | SK-MEL-28 > 100 µM | UO-31 > 100 µM | SF-268 > 100 µM | SW-620 > 100 µM | RPMI-8226 > 100 µM | TK-10 > 100 µM | SN12C > 100 µM | U-251 > 100 µM | HT-29 > 100 µM | K562 > 100 µM

CCOC(=O)C(CNc1ccc(O)cc1)NC(=O)c1ccccc1 (stereo not drawn)
inactive: COLO 205 > 100 µM | M14 > 66.4 µM | RXF 393 > 100 µM | OVCAR-3 > 100 µM | LOX IMVI 99.8 µM | SK-MEL-28 > 100 µM | UO-31 > 100 µM | SF-268 > 100 µM | SW-620 > 100 µM | NCI-H226 > 100 µM | HCT-116 > 100 µM | RPMI-8226 53.6 µM | TK-10 > 100 µM | SN12C > 100 µM | U-251 > 100 µM | SR > 61 µM | HT-29 > 100 µM | K562 37.8 µM

CC(=O)/C(=C\c1ccco1)C(=O)Nc1ccccc1
inactive: M14 > 100 µM | RXF 393 > 100 µM | OVCAR-3 > 100 µM | LOX IMVI > 100 µM | SK-MEL-28 > 100 µM | UO-31 > 100 µM | SF-268 > 100 µM | SW-620 > 100 µM | HCT-116 > 100 µM | RPMI-8226 > 100 µM | TK-10 > 100 µM | SN12C > 100 µM | U-251 > 100 µM | SR > 100 µM | HT-29 > 100 µM | K562 > 100 µM

CCN(CC)c1c(C)nnn1C1OC(COC(C)=O)C(OC(C)=O)C(OC(C)=O)C1OC(C)=O (stereo not drawn)
inactive: COLO 205 > 100 µM | M14 > 100 µM | OVCAR-3 > 100 µM | SK-MEL-28 > 100 µM | UO-31 > 100 µM | SF-268 > 100 µM | SW-620 15 µM | NCI-H226 > 100 µM | HCT-116 > 100 µM | RPMI-8226 28.6 µM | TK-10 > 100 µM | SN12C > 100 µM | U-251 > 100 µM | HT-29 > 100 µM | K562 > 100 µM

O=C1OC(c2ccccc2)=N/C1=C/N1CCCC1C(=O)O (stereo not drawn)
inactive: COLO 205 > 100 µM | M14 > 100 µM | RXF 393 > 100 µM | OVCAR-3 > 100 µM | LOX IMVI > 100 µM | SK-MEL-28 > 100 µM | UO-31 > 100 µM | SF-268 > 100 µM | SW-620 > 100 µM | NCI-H226 > 100 µM | HCT-116 > 100 µM | RPMI-8226 > 100 µM | TK-10 > 100 µM | U-251 > 100 µM | HT-29 > 100 µM | K562 > 100 µM
